In PubChem BioAssay (NCI):
Where “and” joins values, the source holds several entries; their conditions need not be identical. Identical values can stand only once.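 Five concentrations, 48 hours, 96-well plates. GI50: concentration for 50% inhibition of growth. TGI marks complete inhibition of growth.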

Experiments:
Assay in all cases: NCI-60 cell line screen, 48 h
[1] = test system: OVCAR-4 ovarian
[2] = test system: EKVX NSCLC
[3] = test system: PC-3 prostate
[4] = test system: SN12C renal
[5] = test system: SF-295 CNS
[6] = test system: RXF 393 renal
[7] = test system: UO-31 renal
[8] = test system: SK-OV-3 ovarian
[9] = test system: SK-MEL-28 melanoma
[10] = test system: MALME-3M melanoma

SMILES	GI50 [1]	TGI [1]	GI50 [2]	TGI [2]	GI50 [3]	TGI [3]	GI50 [4]	TGI [4]	GI50 [5]	TGI [5]	GI50 [6]	TGI [6]	GI50 [7]	TGI [7]	GI50 [8] [µM]	TGI [8] [µM]	GI50 [9]	TGI [9]	GI50 [10]	TGI [10]
CC(C)[C@@]12C[C@@H](OC(=O)COC(=O)c3ccccc3)[C@@](C)(O1)[C@@H]1CC[C@@H](C)[C@H]1[C@@H]2OC(=O)/C=C/c1ccccc1	> 63.1 µM	> 100 µM	> 100 µM	> 100 µM	22.7 µM	> 100 µM	7.35 µM	> 100 µM	> 100 µM	> 100 µM	0.284 µM	> 8.44 µM	0.115 µM	1.66 µM	> 100	> 100	> 100 µM	> 100 µM	> 100 µM	> 100 µM
COc1ccc(C2=C(c3ccccc3)C(=O)N3CCCC3C2)cc1 (stereo not given)	55.2 µM	> 100 µM	> 82.9 µM	> 100 µM	1.48 µM	> 100 µM	13 µM	> 100 µM	2.11 µM	> 100 µM	25.5 µM	> 100 µM	2.93 µM	> 100 µM	> 100	> 100	> 62.5 µM	> 100 µM	> 100 µM	> 100 µM
O=C(O)c1ccc(CSc2nc3ccccc3[nH]2)cc1	> 100 µM	> 100 µM	> 100 µM	> 100 µM	> 100 µM	> 100 µM	> 100 µM	> 100 µM	> 100 µM	> 100 µM	> 100 µM	> 100 µM	> 100 µM	> 100 µM	> 100	> 100	> 100 µM	> 100 µM	> 100 µM	> 100 µM
COc1ccc(-c2nc3sccn3c2-c2ccnc(NCCNS(=O)(=O)c3ccc(C(F)(F)F)cc3)n2)cc1	1.99 µM	39.6 µM	4.04 µM	> 100 µM	0.303 µM	3.34 µM	0.688 µM	8.38 µM	2.24 µM	5.58 µM	2.66 µM	63.2 µM	1.09 µM	> 100 µM	4.44	> 100	3.68 µM	55.5 µM	2.35 µM	5.22 µM
COc1ccccc1CNCCCN1C(=O)c2ccc3c4c(ccc(c24)C1=O)C(=O)N(CCCNCCCCNCCCN)C3=O	0.167 µM	0.319 µM	1.39 µM	3.22 µM	0.561 µM	5.23 µM	0.319 µM	1.5 µM	1.06 µM	6.79 µM	0.323 µM	1.39 µM	2.66 µM	16.2 µM	1.95	11.1	0.388 µM	1.44 µM	0.241 µM	0.546 µM
CC1(C)CC[C@]23CC[C@]4(C)[C@H](CC[C@@H]5[C@@]6(C)CCCNC(C)(C)[C@@H]6CC[C@]54C)[C@H]2[C@H]1OC3	1.65 µM	3.12 µM	1.68 µM	3.37 µM	1.61 µM	3.17 µM	1.68 µM	3.2 µM	1.7 µM	3.19 µM	1.56 µM	2.98 µM	1.56 µM	3 µM	2.73	7.93	1.66 µM	3.18 µM	1.79 µM	3.47 µM
CC[C@]12C=CCN3CC[C@]4(C(=C(C(=O)OC)C1)Nc1cc5c(cc14)[C@@H]1[C@H](O5)[C@@H](O)[C@@]4(CC)CC(C(=O)OC)=C5Nc6ccccc6[C@@]56CCN1[C@@H]46)[C@@H]32	0.365 µM and 0.397 µM	13 µM and > 100 µM	0.927 µM and 0.748 µM	25 µM and 33.8 µM	0.435 µM and 0.776 µM	25 µM and 16.2 µM	0.464 µM and 0.499 µM	25 µM and 33.5 µM	1.17 µM and 0.535 µM	25 µM and 12.8 µM	0.523 µM and 0.456 µM	3.76 µM and 2.56 µM	0.0951 µM and 0.127 µM	3.31 µM and 6.25 µM	1.09	25	1.07 µM and 1.32 µM	9.29 µM and 24.2 µM	0.412 µM and 0.431 µM	3.45 µM and 15.2 µM
CC(C)(C)N1CC1CNC(=O)C(=O)NCC1CN1C(C)(C)C (stereo not given)		60.2 µM		> 31.1 µM		> 100 µM		15.7 µM		14.3 µM		5.22 µM		> 21.3 µM		13.4		11.1 µM		8.68 µM
CCN1C(=O)/C(=c2\sc3n(c2=O)C2C(NN=3)N(CC)C(=O)N2CC)c2ccccc21 (stereo not given)	5.48 µM	> 100 µM	0.851 µM	> 100 µM	0.46 µM	> 100 µM	0.615 µM	> 100 µM	0.377 µM	6.64 µM	0.279 µM	0.814 µM	0.846 µM	> 100 µM	2.12	> 55.7	0.907 µM	> 100 µM	0.596 µM	> 100 µM
COC(=O)C1c2cc3c(c(O)c2CCC1(C)O)C(=O)c1c(O)cc2c(c1C3=O)OC1OC2(C)C(O)C(N(C)C)C1O (stereo not given)		1.45 µM		0.774 µM		1.79 µM		3.84 µM		1.87 µM		1.55 µM		4.62 µM		15		15.7 µM		1.17 µM
NS(=O)(=O)c1ccc(N=Nc2c(O)[nH]c3ccc(C(=O)NCCCn4ccnc4)cc23)cc1	> 25 µM	> 25 µM	> 25 µM	> 25 µM	> 25 µM	> 25 µM	> 25 µM	> 25 µM	> 25 µM	> 25 µM	> 25 µM	> 25 µM	> 25 µM	> 25 µM	> 25	> 25	> 25 µM	> 25 µM	> 25 µM	> 25 µM
Cc1cc(O)ccc1C1(c2ccc(O)cc2C)OC(=O)c2ccccc21	16.4 µM	30.8 µM	14.9 µM	31 µM	18 µM	35.6 µM	19.5 µM	39.9 µM	16.2 µM	31.7 µM	18.5 µM	33.9 µM	18.1 µM	36.7 µM	17.7	32.8	17.3 µM	35.4 µM	17.9 µM	37.9 µM
Cc1nc2ccc(-n3ncc(C(=O)c4cc5ccccc5[nH]4)c3N)cc2[nH]1	16 µM	> 100 µM	20.9 µM	> 100 µM	9.65 µM	> 100 µM	12.7 µM	> 100 µM	4.87 µM	44.8 µM	2.47 µM	15.7 µM	10 µM	33.2 µM	14	> 100	8.78 µM	> 100 µM	13.9 µM	83.1 µM
Cc1[nH]c(C(=O)Nc2cccc(OC3CCNCC3)c2)c(Cl)c1Cl	2.6 µM	6.76 µM	1.57 µM	3.39 µM	1.69 µM	3.36 µM	2.8 µM	10.1 µM	1.97 µM	3.96 µM	1.74 µM	3.46 µM	1.52 µM	2.94 µM	2.07	5.09	1.64 µM	3.07 µM	1.6 µM	3.22 µM
CCOC(=O)C1=C(C)NC2SC(=O)/C(=C\c3cccc(Cl)c3)N2C1c1ccccc1 (stereo not given)	84.3 µM	> 100 µM	> 100 µM	> 100 µM	> 100 µM	> 100 µM	> 100 µM	> 100 µM	> 100 µM	> 100 µM	> 100 µM	> 100 µM	> 100 µM	> 100 µM	> 100	> 100	> 100 µM	> 100 µM	28.3 µM	> 100 µM
CSC1=CC(=O)c2ccccc2C1=O	1.36 µM	2.67 µM	15.5 µM	34.9 µM	2.54 µM	12.5 µM	5.31 µM	19.4 µM	15.4 µM	31.5 µM	1.54 µM	2.9 µM	1.4 µM	2.84 µM	18.2	32.1	11.1 µM	23.8 µM	1.92 µM	3.54 µM
COc1cc(/C=C2\CC3C4CCC5=CC(=O)CC[C@]5(C)C4CC[C@]3(C)C2=O)ccc1OCCN1CCCC1 (stereo not given in full)	3.94 µM	15.1 µM	3.98 µM	17.3 µM	2.35 µM	8.31 µM	3.28 µM	9.18 µM	2.62 µM	7.58 µM	2.24 µM	5.41 µM	1.68 µM	3.38 µM	4.56	16.8	2.7 µM	8.11 µM	0.645 µM	1.93 µM
COc1cc(/C=C2\CCC/C(=C\c3cc(CN4CCCC4)c(O)c(OC)c3)C2=O)cc(CN2CCCC2)c1O	5.93 µM	> 100 µM	6.94 µM	20.2 µM	3.88 µM	16.6 µM	4.89 µM	21.2 µM	9.89 µM	25.2 µM	1.72 µM	5.68 µM	10.1 µM	21.7 µM	4.58	16.5	10.1 µM	22.7 µM	2.73 µM	6.41 µM
Cn1cc(-c2csc(-c3ccccc3)n2)c2cccnc21	23.3 µM	71.4 µM	5.2 µM	35.2 µM	14.4 µM	39.1 µM	15 µM	28.2 µM	15 µM	33.7 µM	14.6 µM	33.2 µM	11 µM	28.3 µM	18.7	43.3	15.7 µM	31.5 µM	16.4 µM	42.6 µM
O=C(CCN1CCCCC1)c1csc2ccccc12		> 100 µM		> 100 µM		> 100 µM		> 100 µM		> 100 µM		> 100 µM		> 100 µM		> 100		> 100 µM		> 100 µM
